Results taken from patent US10493398B2, “Cyclic amine for selectively removing hydrogen sulphide” (BASF SE, priority 2015, dated 2019).
Like-named read-outs stand apart in the source and are kept apart here.

Test: pKA values by half-equivalence method
Assay type: physicochemical
Details: for pKa: amine in water, half neutralized with hydrochloric acid; for pKa decrease from 20 °C to 120 °C (pKa at 20 °C − pKa at 120 °C): difference between 20° C. and 120° C.
Method: The pKA values are suitably measured in aqueous solution with an amine concentration of 0.01 to 0.05 mol/kg at the specified temperature by determining the pH at the half-equivalence point, as shown, for example, by the working examples.
The pKA values of various amines were determined by means of the half-equivalence method. For this purpose, the amines were dissolved in water with a concentration of […] and partly neutralized with half the molar amount of hydrochloric acid (0.005 to 0.025 mol/L). The mass of the amine solutions was 250 g. […] The measurements were conducted at 20 and 120° C. The pH electrode used was the “Hamilton Polylite Plus 120” model, which is calibrated with pH 7 and pH 12 buffer solutions. The measurement was effected in a thermostated closed jacketed vessel with nitrogen blanketing.

[1] = 20° C., read-out: pKA at 20° C.
[2] = 120° C., read-out: pKA at 120° C.

pKa [1]	pKa [2]	pKa decrease from 20 °C to 120 °C (pKa at 20 °C − pKa at 120 °C)	Structure (SMILES)
10.7	8.1	2.6	CN(C)C1CC(C)(C)NC(C)(C)C1 [DATP, 4-dimethylamino-2,2,6,6-tetramethylpiperidine]
10.2	7.6	2.6	CC1(C)CC(O)CC(C)(C)N1 [TAAol, 4-hydroxy-2,2,6,6-tetramethylpiperidine]
